# Laboratory results from patent US11298412B2, “Sphingoid compounds for prophylaxis and/or therapy of coronaviridae infection” (priority 2020, dated 2022).
# Entries after “also recorded” stand apart in the source; their conditions may differ.
# Legend:
# [1] = target: T1, recombinant ACE2 (Homo sapiens, UniProt Q9BYF1); assay: Binding of lipids to immobilized recombinant ACE2; conditions: sphingosine at 2 μM
# T1 construct: purchased Abcam ab273687
# [2] = system: pp-VSV-SARS-CoV-2; assay: Adhesion of pp-VSV-SARS-CoV-2 on Vero cells, flow cytometry with anti-spike S1; format: cell-based; conditions: 20 minutes infection in presence of lipid
# [3] = system: lymphocytic choriomeningitis virus (LCMV); format: cell-based, LCMV strain WE
# [4] = system: vesicular stomatitis virus (VSV); format: cell-based, VSV strain Indiana; conditions: 24 hours
# [5] = system: lymphocytic choriomeningitis virus (LCMV); format: cell-based, LCMV strain WE; conditions: 24 hours
# T1 sequence (Q9BYF1 18-805): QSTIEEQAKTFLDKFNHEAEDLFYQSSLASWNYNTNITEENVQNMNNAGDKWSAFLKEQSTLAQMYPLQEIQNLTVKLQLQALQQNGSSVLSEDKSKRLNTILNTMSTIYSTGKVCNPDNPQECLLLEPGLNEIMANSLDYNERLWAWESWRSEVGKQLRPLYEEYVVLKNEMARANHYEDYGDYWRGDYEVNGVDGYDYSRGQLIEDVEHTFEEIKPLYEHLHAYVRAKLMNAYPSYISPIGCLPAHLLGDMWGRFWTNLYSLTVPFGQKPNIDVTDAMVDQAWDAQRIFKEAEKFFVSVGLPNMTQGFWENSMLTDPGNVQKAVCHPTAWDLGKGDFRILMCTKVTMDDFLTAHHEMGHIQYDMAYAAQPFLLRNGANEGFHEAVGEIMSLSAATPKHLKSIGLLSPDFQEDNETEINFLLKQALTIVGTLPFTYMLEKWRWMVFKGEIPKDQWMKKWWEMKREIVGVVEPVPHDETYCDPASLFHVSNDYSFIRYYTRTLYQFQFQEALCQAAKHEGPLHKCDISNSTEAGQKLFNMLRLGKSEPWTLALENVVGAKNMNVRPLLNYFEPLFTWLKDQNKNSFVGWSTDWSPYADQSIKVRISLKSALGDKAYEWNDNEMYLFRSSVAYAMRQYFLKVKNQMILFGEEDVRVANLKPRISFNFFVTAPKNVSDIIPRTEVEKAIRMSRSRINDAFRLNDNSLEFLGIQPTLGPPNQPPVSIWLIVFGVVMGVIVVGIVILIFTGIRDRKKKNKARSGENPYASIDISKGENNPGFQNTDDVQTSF
Compound,binding of lipid to immobilized recombinant ACE2 (beads) [1],binding of pp-VSV-SARS-CoV-2 to the cell surface [2],other results
phosphatidyl-ethanolamine,showed no interation with the beads,,
CCCCCCCCCCCCC/C=C/[C@@H](O)[C@@H](N)COP(=O)(O)O [sphingosine 1-phosphate],showed no interation with the beads,None of the other lipids had an effect,
phosphatidylcholine,showed no interation with the beads,None of the other lipids had an effect,
sphingomyelinase,,,propagation of LCMV (infectious LCMV particles in the supernatant) [3]: reduced propagation of LCMV; also recorded: inhibits the propagation of LCMV; propagation of VSV (number of plaques) [4]: inhibits the propagation of VSV
cardiolipin,showed no interation with the beads,None of the other lipids had an effect,
ceramide,showed no interation with the beads,,
sphingomyelin,showed no interation with the beads,None of the other lipids had an effect,
CCCCCCCCCCCCC/C=C/[C@@H](O)[C@H](CO)NC(=O)CCCCCCCCCCCCCCC [C16-ceramide],,None of the other lipids had an effect,
lactosyl-ceramide,,None of the other lipids had an effect,
"Oc1ccc(Nc2nc(-c3ccc(Cl)cc3)cs2)cc1 [SKII, [2-(p-hydroxyanilino)-4-(p-chlorophenyl)thiazole]]",,,spreading of the virus (LCMV-infected cells) [5]: inhibits spreading of the virus; also recorded: inhibits the spreading of the virus
